Assay results: patent publication US20240325572A1, “N-HETEROCYCLYL SUBSTITUTED 2-CYANO-3-(NAPHTHALEN-2-YL)ACRYLAMIDE DERIVATIVES AS FLUOROPHORS FOR DETECTION OF AMYLOID AND AMYLOID-LIKE PROTEINS FOR DIAGNOSIS OF NEURODEGENERATIVE DISORDERS” (Amydis, Inc., priority 2021, published 2024)

Biological target: T1, aggregated amyloid beta (Aβ1-42) (Homo sapiens, UniProt P05067)
T1 construct: Aβ1-42 peptide was aggregated in vitro using the following procedure
Assay: In vitro binding studies of compounds with amyloid beta: fluorescent emission spectra with and without aggregated Aβ
Conditions: fold increase at maximum emission (compound+Aβ/compound), 4 μM compound, 5 μM aggregated Aβ in 1×PBS; for Fold Increase @ 450 nm: excitation 450 nm; for Fold Increase @ 488 nm: excitation 488 nm
Experimental: The fluorescent properties and emission spectra of compounds described herein with aggregated amyloid beta (Aβ1-42) were characterized as described below.
Emission spectra for compounds described herein were collected after incubation of the compounds with and without aggregated Aβ at specific excitation wavelengths (450 nm and 488 nm) employed in standard ocular imaging equipment.
Aβ1-42 peptide was aggregated in vitro using the following procedure. Aβ42 (HFIP) was removed from the freezer and allowed to warm to room temperature, then 1 mg of Aβ42 was dissolved in 215 μL of ddH2O for about 10-20 mins at room temperature. To the resulting solution, 2 mL of ddH2O was added to provide a 100 μM stock solution. A 100 μL aliquot was sampled and frozen (non-aggregated sample). The tubes were placed in a thermoshaker at 350 rpm for 3 days. Care was taken to avoid generating bubbles. Aβ aggregation was confirmed by measuring binding to Thioflavin T (ThT). Aggregated Aβ1-42 peptide was then portioned into 150 μL aliquots and stored at −80° C.
The fluorescent emission spectra were measured as follows to determine binding of Aβ to test compounds described herein. The Shimadzu fluorimeter was turned on and allowed to warm up for ˜60 minutes. The test compounds were then removed from the −20° C. freezer and were allowed to warm to room temperature. The 100 μM aggregated Aβ solution was then removed from the −80° C. freezer and also allowed to warm to room temperature. 250 μM solutions of each test compound in DMSO were then prepared. These were then used to prepare 4 μM solutions of each test compound, with and without 5 μM aggregated Aβ in 1×PBS, in triplicates. Using a cuvette, the fluorescent emission spectra were measured for each test compound+Aβ solution, employing a DMSO/PBS solution as a blank. Each sample was tested at an excitation of 450 nm and 488 nm. Fluorescent emission spectra were then collected for each 4 μM test compound solution alone. The resulting data were used to plot intensity vs. wavelength for each emission scan.

T1 sequence (P05067 672-713 limits assumed): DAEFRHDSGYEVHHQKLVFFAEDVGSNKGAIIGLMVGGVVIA

Row | SMILES | Fold Increase @ 450 nm | Fold Increase @ 488 nm
1 | N#C/C(=C\c1ccc2cc(N3CCCCC3)ccc2c1)C(=O)NCC(O)CO (centres unmarked) [Compound 4, (E)-2-cyano-N-(2,3-dihydroxypropyl)-3-(6-(piperidin-1-yl)naphthalen-2-yl)acrylamide, reference compound] | 15.28 | 18.53
2 | N#C/C(=C\c1ccc2cc(N3CCCC3)ccc2c1)C(=O)NCC(O)CO (centres unmarked) [Compound 5, (E)-2-cyano-N-(2,3-dihydroxypropyl)-3-(6-(pyrrolidin-1-yl)naphthalen-2-yl)acrylamide] | 18.18 | 22.81
3 | N#C/C(=C\c1ccc2ccccc2c1N1CCCCC1)C(=O)NCC(O)CO (centres unmarked) [Compound 6, (E)-2-cyano-N-(2,3-dihydroxypropyl)-3-(1-(piperidin-1-yl)naphthalen-2-yl)acrylamide] | 7.12 | 17.18
4 | N#C/C(=C\c1ccc2ccccc2c1N1CCC1)C(=O)NCC(O)CO (centres unmarked) [Compound 7, (E)-3-(1-(azetidin-1-yl)naphthalen-2-yl)-2-cyano-N-(2,3-dihydroxypropyl)acrylamide] | 4.31 | 2.84
5 | N#C/C(=C\c1ccc2cc(N3CCCCC3)ccc2c1)C(=O)CC[C@H](O)CO [Compound 8, (S,E)-6,7-dihydroxy-3-oxo-2-((6-(piperidin-1-yl)naphthalen-2-yl)methylene)heptanenitrile] | 9.48 | 19.60
6 | N#C/C(=C\c1ccc2cc(N3CCCCC3)ccc2c1)C(=O)CCCOCCOCCO [Compound 9, (E)-6-(2-(2-hydroxyethoxy)ethoxy)-3-oxo-2-((6-(piperidin-1-yl)naphthalen-2-yl)methylene)hexanenitrile] | 10.16 | 9.11
7 | N#C/C(=C\c1ccc2cc(N3CCC3)ccc2c1)C(=O)NCC(O)CO (centres unmarked) [Compound 10, (E)-3-(6-(azetidin-1-yl)naphthalen-2-yl)-2-cyano-N-(2,3-dihydroxypropyl)acrylamide] | 21.98 | 19.13
